Source: US7695930B2, “Method for the detection, identification and/or quantification of microoganisms with peptidase activity using phenoxazinone derivatives as enzyme substrates” (Biomerieux, priority 2003, dated 2010)

What was measured:
Assay in all cases: Alanine peptidase detection, substrates with one to three amino acids (Example 15)
Type in all cases: cell-based
Set-up in all cases: key to color of the colony: R=pink; RP=pale pink; I=colorless
Conditions in all cases: 50 mg/l
[1] = test system: Acinetobacter baumannii (ATCC 19606)
Description: (§1) 1000 ml of Columbia medium was melted in a waterbath at 100° C. and autoclaved at 121° C. for 15 min. It was then cooled to 50° C. in a waterbath.
(§2) This medium was separated into 5 flasks of 200 ml, and then, added at 50° C., as substrates, was that of Example 2 for which A is: • medium 1: L-alanine (L-alanine-9-aminobenzo[a]phenoxazin-5-one or A-ABP), • medium 2: L-alanine-L-alanine (L-alanine-L-alanine-9-aminobenzo-[a]phenoxazin-5-one or AA-ABP), • medium 3: L-alanine-L-alanine-L-alanine (L-alanine-L-alanine-L-alanine-9-aminobenzo[a]phenoxazin-5-one or AAA-ABP), • medium 4: L-alanine-glycine (L-alanine-glycine-9-aminobenzo[a]phenoxazin-5-one or AG-ABP), and • medium 5: glycine-L-alanine (glycine-L-alanine-9-aminobenzo[a]phenoxazin-5-one or GA-ABP), each substrate being solubilized in DMSO and used at a final concentration of 50 mg/l.
(§3) The medium was then poured into Petri dishes.
(§4) Nine microorganism strains derived from the Applicant's collection, suspended in physiological saline, were seeded in colonies on the media prepared in point 15.1 above according to a multipoint inoculation in a proportion of 15 000 cfu/spot. The dishes were incubated at 37° C. for 48 hours. The colonies formed were examined visually after incubation for 24 and 48 hours.
(§5) The results are expressed in Tables 7 and 8 hereinafter according to the rules and the nomenclature stated in paragraph 11.3 and where R=pink, RP=pale pink and I=colorless.

[2] = test system: Staphylococcus aureus (NCTC 6571)
Description: as §1, §2, §3, §4, §5

[3] = test system: Staphylococcus epidermis (NCTC 11047)
Description: as §1, §2, §3, §4, §5

[4] = test system: Micrococcus luteus (NCTC611)
Description: as §1, §2, §3, §4, §5

[5] = test system: Enterobacter clocae (NCTC 11936)
Description: as §1, §2, §3, §4, §5

[6] = test system: Escherichia coli (NCTC 10418)
Description: as §1, §2, §3, §4, §5

[7] = test system: Listeria monocytogenes (NCTC 11994)
Description: as §1, §2, §3, §4, §5

[8] = test system: Pseudomonas aerigunosa (NCTC 10038)
Description: as §1, §2, §3, §4, §5

Substance	color of the colony ([1]; 24 h)	growth diameter ([1]; 24 h) [mm]	color of the colony ([1]; 48 h)	growth diameter ([1]; 48 h) [mm]	color of the colony ([2]; 24 h)	growth diameter ([2]; 24 h) [mm]	color of the colony ([2]; 48 h)	growth diameter ([2]; 48 h) [mm]	color of the colony ([3]; 24 h)	growth diameter ([3]; 24 h) [mm]	color of the colony ([3]; 48 h)	growth diameter ([3]; 48 h) [mm]	growth diameter ([4]; 24 h) [mm]	growth diameter ([4]; 48 h) [mm]	color of the colony ([5]; 24 h)	growth diameter ([5]; 24 h) [mm]	color of the colony ([5]; 48 h)	growth diameter ([5]; 48 h) [mm]	color of the colony ([6]; 24 h)	growth diameter ([6]; 24 h) [mm]	further results
L-alanine-L-alanine-9-aminobenzo-[a]phenoxazin-5-one [AA-ABP]	R	3	R	3	I	3	I	2	I	2	I	2	0	0	R	3	R	3	R	3	color of the colony ([6]; 48 h): R; growth diameter ([6]; 48 h): 3 mm; color of the colony ([7]; 24 h): R; growth diameter ([7]; 24 h): 2 mm; color of the colony ([7]; 48 h): R; growth diameter ([7]; 48 h): 2 mm; color of the colony ([8]; 24 h): R; growth diameter ([8]; 24 h): 3 mm; color of the colony ([8]; 48 h): R; growth diameter ([8]; 48 h): 3 mm
L-alanine-L-alanine-L-alanine-9-aminobenzo[a]phenoxazin-5-one [AAA-ABP]	R	3	R	3	I	3	I	3	I	2	I	2	1	3	R	3	R	3	R	3	color of the colony ([4]; 24 h): R; color of the colony ([4]; 48 h): R; color of the colony ([6]; 48 h): R; growth diameter ([6]; 48 h): 3 mm; color of the colony ([7]; 24 h): R; growth diameter ([7]; 24 h): 2 mm; color of the colony ([7]; 48 h): R; growth diameter ([7]; 48 h): 2 mm; color of the colony ([8]; 24 h): R; growth diameter ([8]; 24 h): 3 mm; color of the colony ([8]; 48 h): R; growth diameter ([8]; 48 h): 3 mm
L-alanine-glycine-9-aminobenzo[a]phenoxazin-5-one [AG-ABP]	RP	3	R	3	I	3	I	3	I	3	I	3	1	3	R	3	R	3	R	3	color of the colony ([4]; 24 h): I; color of the colony ([4]; 48 h): R; color of the colony ([6]; 48 h): R; growth diameter ([6]; 48 h): 3 mm; color of the colony ([7]; 24 h): I; growth diameter ([7]; 24 h): 2 mm; color of the colony ([7]; 48 h): I; growth diameter ([7]; 48 h): 3 mm; color of the colony ([8]; 24 h): RP; growth diameter ([8]; 24 h): 3 mm; color of the colony ([8]; 48 h): R; growth diameter ([8]; 48 h): 3 mm
